# Structures can show the parent of a compound that is named as a salt. ± gives the standard deviation of the averaged measurements.
# Test system: HT1080
# Test: relative viability vs DMSO control (72 h) (fraction); higher = more viable cells
# Procedure, shortened: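 Serially diluted compound, 2.5 µl from source plates spanning 10 mM to 0.0002 mM, was added 24 h after sarcoma cell lines were seeded in 384-well plates at densities targeting 80–90% confluence. Plates then sat 72 h at 37 °C, 5% CO2, with 0.1% DMSO vehicle and a 5 µM positive control. Relative viability came from ATPLite as percent growth, averaged over up to triplicate wells, and was rescaled with 1 as full and 0 as none.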
Structure (SMILES),relative viability (0.00017 µM),relative viability (0.00051 µM),relative viability (0.00152 µM),relative viability (0.00457 µM),relative viability (0.01372 µM),relative viability (0.04115 µM),relative viability (0.1235 µM),relative viability (0.3704 µM),relative viability (1.111 µM),relative viability (3.333 µM),relative viability (10 µM)
Cc1nc(NC(=O)N2CCC[C@H]2C(N)=O)sc1-c1ccnc(C(C)(C)C(F)(F)F)c1 [Alpelisib],1.06 ± 0.032,1.05 ± 0.027,1.05 ± 0.022,1.08 ± 0.031,1.01 ± 0.014,1.04 ± 0.018,1 ± 0.023,1.02 ± 0.037,0.994 ± 0.03,0.977 ± 0.034,0.889 ± 0.016
Cn1cnc2c(F)c(Nc3ccc(Br)cc3F)c(C(=O)NOCCO)cc21 [Binimetinib],1.1 ± 0.019,1.09 ± 0.031,1.09 ± 0.021,1.03 ± 0.026,1.031 ± 0.0075,0.8738 ± 0.0029,0.752 ± 0.017,0.626 ± 0.015,0.577 ± 0.026,0.518 ± 0.034,0.451 ± 0.032
CCc1cc2c(cc1N1CCC(N3CCOCC3)CC1)C(C)(C)c1[nH]c3cc(C#N)ccc3c1C2=O [Alectinib],1.07 ± 0.018,1.09 ± 0.0051,1.06 ± 0.032,1.09 ± 0.014,1.077 ± 0.0047,1.11 ± 0.045,1.08 ± 0.02,1.11 ± 0.028,1.07 ± 0.024,1.07 ± 0.047,1.02 ± 0.051
Cc1cc(C)c(/C=C2\C(=O)Nc3ccccc32)[nH]1 [Semaxanib],0.923 ± 0.051,0.964 ± 0.038,0.94 ± 0.023,0.945 ± 0.018,0.926 ± 0.022,0.946 ± 0.049,0.893 ± 0.059,0.921 ± 0.018,0.928 ± 0.023,0.939 ± 0.034,0.888 ± 0.065
CC1(C)CNc2cc(NC(=O)c3cccnc3NCc3ccncc3)ccc21 [Motesanib],1.03 ± 0.036,0.975 ± 0.032,1.03 ± 0.016,1.03 ± 0.023,1.04 ± 0.041,1 ± 0.04,1.02 ± 0.0035,0.98 ± 0.012,1.01 ± 0.018,0.9961 ± 0.0086,0.976 ± 0.015
CNC(=O)c1ccc(-c2cnc3ncc(Cc4ccc5ncccc5c4)n3n2)cc1F [Capmatinib],1.06 ± 0.022,1.06 ± 0.041,1.06 ± 0.018,1.06 ± 0.014,1.06 ± 0.012,1.04 ± 0.019,1.05 ± 0.014,1.05 ± 0.028,1.044 ± 0.01,0.989 ± 0.015,1.005 ± 0.0012
CC(C)N1CCN(Cc2cnc(-c3cc(-c4cccc5[nH]ccc45)cc4[nH]ncc34)o2)CC1 [Nemiralisib],1 ± 0.045,1.03 ± 0.015,1.01 ± 0.02,1.027 ± 0.0081,1.008 ± 0.0024,1.02 ± 0.011,1.05 ± 0.045,1.05 ± 0.034,1.08 ± 0.068,1.02 ± 0.033,0.858 ± 0.024
CO[C@H]1C[C@@H]2CC[C@@H](C)[C@@](O)(O2)C(=O)C(=O)N2CCCC[C@H]2C(=O)O[C@H]([C@H](C)C[C@@H]2CC[C@@H](OP(C)(C)=O)[C@H](OC)C2)CC(=O)[C@H](C)/C=C(\C)[C@@H](O)[C@@H](OC)C(=O)[C@H](C)C[C@H](C)/C=C/C=C/C=C/1C [Ridaforolimus],1.1 ± 0.019,1.08 ± 0.02,1.13 ± 0.047,1.08 ± 0.03,1.03 ± 0.011,0.99 ± 0.028,0.983 ± 0.034,0.9952 ± 0.0077,0.9672 ± 0.0023,0.9615 ± 0.0033,0.934 ± 0.028
Nc1cc(C(F)(F)F)c(-c2cc(N3CCOCC3)nc(N3CCOCC3)n2)cn1 [Buparlisib],1.01 ± 0.077,1.02 ± 0.024,1.018 ± 0.0073,1.05 ± 0.036,1.04 ± 0.015,1.03 ± 0.022,1.03 ± 0.039,1.07 ± 0.013,1 ± 0.013,0.11 ± 0.0037,0.0244 ± 0.0015
Cc1ccc(F)c(NC(=O)Nc2ccc(-c3cccc4[nH]nc(N)c34)cc2)c1 [Linifanib],1.08 ± 0.022,1.08 ± 0.026,1.07 ± 0.017,1.033 ± 0.0064,1.06 ± 0.02,1.07 ± 0.037,1.048 ± 0.0077,1.08 ± 0.0094,1.08 ± 0.031,1.08 ± 0.03,1.05 ± 0.015
N#CC[C@H](C1CCCC1)n1cc(-c2ncnc3[nH]ccc23)cn1 [Ruxolitinib],1.04 ± 0.037,1.034 ± 0.0099,1.07 ± 0.012,1.05 ± 0.068,1.06 ± 0.049,1.03 ± 0.017,1.05 ± 0.027,1.04 ± 0.04,1.04 ± 0.021,1.04 ± 0.035,1.02 ± 0.087
C=CC(=O)Nc1cccc(Oc2nc(Nc3ccc(N4CCN(C)CC4)cc3)nc3ccsc23)c1 [Olmutinib],1.05 ± 0.021,1.08 ± 0.014,1.07 ± 0.017,1.07 ± 0.018,1.05 ± 0.049,1.0797 ± 0.00078,1.07 ± 0.011,1.06 ± 0.019,1.04 ± 0.015,1.03 ± 0.037,0.492 ± 0.13
CCCS(=O)(=O)Nc1ccc(F)c(C(=O)c2c[nH]c3ncc(-c4ccc(Cl)cc4)cc23)c1F [Vemurafenib],1.1 ± 0.032,1.07 ± 0.049,1.09 ± 0.05,1.08 ± 0.031,1.08 ± 0.044,1.07 ± 0.045,1.07 ± 0.043,1.08 ± 0.04,1.13 ± 0.031,1.04 ± 0.023,0.663 ± 0.25
Cc1ccc(NC(=O)c2ccc(CN3CCN(C)CC3)cc2)cc1Nc1nc(-c2cccnc2)cs1 [Masitinib],1.02 ± 0.029,1.06 ± 0.022,1.06 ± 0.0062,1.08 ± 0.033,1.05 ± 0.019,1.06 ± 0.021,1.03 ± 0.032,1.02 ± 0.044,0.89 ± 0.02,0.642 ± 0.06,0.177 ± 0.012
Cc1cnc(Nc2ccc(OCCN3CCCC3)cc2)nc1Nc1cccc(S(=O)(=O)NC(C)(C)C)c1 [Fedratinib],1.11 ± 0.027,1.03 ± 0.056,1.08 ± 0.0082,1.06 ± 0.032,1.07 ± 0.044,1.05 ± 0.044,1.04 ± 0.009,1.03 ± 0.022,0.813 ± 0.015,0.391 ± 0.014,0.0298 ± 0.0037
C[C@@H](c1ccc2nccn2c1)n1nnc2ncc(-c3cnn(C)c3)nc21 [Volitinib],1.02 ± 0.043,1.06 ± 0.016,1.07 ± 0.02,1.06 ± 0.031,1.06 ± 0.029,1.04 ± 0.011,1.02 ± 0.022,1.05 ± 0.034,1.06 ± 0.012,0.992 ± 0.016,0.948 ± 0.053
COc1cccc2c1C(=O)c1c(O)c3c(c(O)c1C2=O)C[C@@](O)(C(=O)CO)C[C@@H]3O[C@H]1C[C@H](N)[C@H](O)[C@H](C)O1 [Doxorubicin Hydrochloride],1.09 ± 0.015,1.071 ± 0.0078,1.04 ± 0.025,1.05 ± 0.024,0.97 ± 0.028,0.707 ± 0.01,0.5504 ± 0.0046,0.117 ± 0.0055,0.105 ± 0.0013,0.183 ± 0.0044,0.115 ± 0.0043
CCN1CCN(Cc2ccc(Nc3ncc(F)c(-c4cc(F)c5nc(C)n(C(C)C)c5c4)n3)nc2)CC1 [Abemaciclib],1.05 ± 0.0085,1.05 ± 0.034,1.06 ± 0.018,1.08 ± 0.034,1.06 ± 0.011,1.07 ± 0.018,1.13 ± 0.053,1.18 ± 0.045,1.15 ± 0.055,1.07 ± 0.045,0.926 ± 0.063
C=CC(=O)N1CCC([C@@H]2CCNc3c(C(N)=O)c(-c4ccc(Oc5ccccc5)cc4)nn32)CC1 [Zanubrutinib],1.04 ± 0.022,1.05 ± 0.022,1.04 ± 0.04,1.03 ± 0.024,1.03 ± 0.026,1.03 ± 0.031,1.03 ± 0.028,1.05 ± 0.071,1.017 ± 0.0087,1.02 ± 0.033,1.02 ± 0.026
COc1cc2/c(=N/c3ccc(Br)cc3F)nc[nH]c2cc1OCC1CCN(C)CC1 [Vandetanib],1.02 ± 0.015,1.02 ± 0.026,1.03 ± 0.026,1.03 ± 0.022,1.03 ± 0.026,1.02 ± 0.034,1.02 ± 0.043,1.03 ± 0.031,1.02 ± 0.02,0.962 ± 0.04,0.326 ± 0.022
C[C@@H]1COCCN1c1cc(-c2ccnn2C)c2ccnc(-c3ccn[nH]3)c2n1,1.044 ± 0.0047,1.03 ± 0.014,1.024 ± 0.0029,1.02 ± 0.025,0.998 ± 0.035,0.954 ± 0.017,0.735 ± 0.037,0.28 ± 0.0093,0.191 ± 0.0041,0.16 ± 0.0093,0.1555 ± 0.00028
C[C@]1(O)C[C@@H](c2nc(-c3ccc4ccc(-c5ccccc5)nc4c3)c3c(N)nccn32)C1 [Linsitinib],1.044 ± 0.0049,1.09 ± 0.025,1.045 ± 0.0029,1.057 ± 0.009,1.04 ± 0.047,1.03 ± 0.018,1.03 ± 0.023,0.988 ± 0.025,0.968 ± 0.043,0.968 ± 0.025,0.881 ± 0.017
COc1c(OCCCN2CCOCC2)ccc2c1N=C(NC(=O)c1cnc(N)nc1)N1CCN=C21 [Copanlisib],1.15 ± 0.059,1.14 ± 0.034,1.12 ± 0.04,1.111 ± 0.0021,1.1 ± 0.017,1.12 ± 0.016,1.08 ± 0.034,0.964 ± 0.026,0.65405 ± 0.00049,0.342 ± 0.022,0.224 ± 0.025
CN1CCN(c2ccc3nc(-c4c(N)c5c(F)cccc5[nH]c4=O)[nH]c3c2)CC1 [Dovitinib],1.1 ± 0.047,1.09 ± 0.053,1.05 ± 0.046,1.1 ± 0.028,1.09 ± 0.013,1.095 ± 0.0071,1.11 ± 0.023,1.155 ± 0.0091,0.975 ± 0.017,0.632 ± 0.023,0.154 ± 0.08
COCc1c(-c2cc3cc(C)cc(OC)c3s2)c2c(N)ncnn2c1CN1CCNC(=O)C1 [Rogaratinib],1.08 ± 0.023,1.09 ± 0.041,1.07 ± 0.028,1.038 ± 0.0047,1.05 ± 0.013,1.06 ± 0.017,1.05 ± 0.017,1.07 ± 0.04,1.084 ± 0.0066,1.09 ± 0.024,1.06 ± 0.032
CN1CCC(COc2cnc(-c3cccc(Cn4nc(-c5cccc(C#N)c5)ccc4=O)c3)nc2)CC1 [Tepotinib],1.1 ± 0.066,1.09 ± 0.025,1.12 ± 0.013,1.081 ± 0.0059,1.092 ± 0.0041,1.07 ± 0.016,1.07 ± 0.043,1.07 ± 0.059,1.04 ± 0.034,1.032 ± 0.0023,0.8618 ± 0.0058

# Source: the supplement of paper PMC10883282
